Test results: ChEMBL document CHEMBL2202952, “Marthiapeptide A, an anti-infective and cytotoxic polythiazole cyclopeptide from a 60 L scale fermentation of the deep sea-derived Marinactinospora thermotolerans SCSIO 00652” (J Nat Prod, 2012)
Converted amounts (≈) assume the structure as drawn. The source made the active and inactive calls. The rule behind the calls is not given here.

What was measured:
[1] = system: Escherichia coli; experiment: Antimicrobial activity against Escherichia coli DH5[alpha]; assay type: functional
[2] = system: Escherichia coli; experiment: Antimicrobial activity against Escherichia coli ATCC 25922; assay type: functional
[3] = system: Staphylococcus aureus; experiment: Antimicrobial activity against Staphylococcus aureus ATCC 29213; assay type: functional
[4] = system: Bacillus subtilis; experiment: Antimicrobial activity against Bacillus subtilis ATCC 6633; assay type: functional
[5] = system: Micrococcus luteus; experiment: Antimicrobial activity against Micrococcus luteus; assay type: functional
[6] = Antimicrobial activity against Aeromonas hydrophila subsp. hydrophila ATCC 7966; assay type: functional
[7] = system: Bacillus thuringiensis; experiment: Antimicrobial activity against Bacillus thuringiensis; assay type: functional
[8] = system: HepG2; experiment: Cytotoxicity against human HepG2 cells by SRB method; assay type: functional, cell-based
[9] = system: NCI-H460; experiment: Potency index, ratio of IC50 for cisplatin to IC50 for test compound against human NCI-H460 cells by SRB method; assay type: functional
[10] = system: MCF7; experiment: Potency index, ratio of IC50 for cisplatin to IC50 for test compound against human MCF7 cells by SRB method; assay type: functional
[11] = system: MCF7; experiment: Cytotoxicity against human MCF7 cells by SRB method; assay type: functional, cell-based
[12] = system: HepG2; experiment: Potency index, ratio of IC50 for cisplatin to IC50 for test compound against human HepG2 cells by SRB method; assay type: functional
[13] = system: Nucleic Acid; experiment: Effect on F21T G-quadruplex DNA thermal stabilization assessed as change in melting temperature at 2 uM by FRET; assay type: nucleic-acid assay
[14] = system: NCI-H460; experiment: Cytotoxicity against human NCI-H460 cells by SRB method; assay type: functional, cell-based
[15] = system: SF-268; experiment: Potency index, ratio of IC50 for cisplatin to IC50 for test compound against human SF268 cells by SRB method; assay type: functional
[16] = system: Nucleic Acid; experiment: Binding affinity to human telomeric intramolecular HTG21 G-quadruplex DNA at 20 uM by CD spectroscopy; assay type: nucleic-acid assay
[17] = system: SF-268; experiment: Cytotoxicity against human SF268 cells by SRB method; assay type: functional, cell-based

Row | SMILES | MIC [1] | MIC [2] | MIC [3] | MIC [4] | MIC [5] | MIC [6] | MIC [7] | IC50 [8] | Ratio IC50 [9] | Ratio IC50 [10] | IC50 [11] | Ratio IC50 [12] | ΔTm [13] | IC50 [14] | Ratio IC50 [15] | Activity [16] | IC50 [17]
1 | NC[C@H]1O[C@H](O[C@H]2[C@H](O)[C@@H](O[C@H]3O[C@H](CO)[C@@H](O)[C@H](N)[C@H]3O)[C@H](N)C[C@@H]2N)[C@H](O)[C@@H](O)[C@@H]1O [KANAMYCIN] | 32 µg/mL (≈ 66 µM) | 16 µg/mL (≈ 33 µM) | 8 µg/mL (≈ 16.5 µM) | < 1 µg/mL | 32 µg/mL (≈ 66 µM) | < 1 µg/mL | 4 µg/mL (≈ 8.26 µM) |  |  |  |  |  |  |  |  |  | 
2 | CC[C@H](C)[C@@H]1NC(=O)[C@@H](Cc2ccccc2)NC(=O)[C@@H]2CSC(=N2)c2csc(n2)-c2csc(n2)-c2csc(n2)[C@@H](C)NC1=O [MARTHIAPEPTIDE A] | > 128 µg/mL | > 128 µg/mL | 8 µg/mL (≈ 12 µM) | 4 µg/mL (≈ 6.01 µM) | 2 µg/mL (≈ 3 µM) | > 128 µg/mL | 2 µg/mL (≈ 3 µM) | 520 nM | 5 | 5 | 430 nM | 5 | 0.9 °C | 470 nM | 5 | inactive | 380 nM
3 | CC[C@H]1OC(=O)[C@H](C)[C@@H](O[C@H]2C[C@@](C)(OC)[C@@H](O)[C@H](C)O2)[C@H](C)[C@@H](O[C@@H]2O[C@H](C)C[C@H](N(C)C)[C@H]2O)[C@](C)(O)C[C@@H](C)C(=O)[C@H](C)[C@@H](O)[C@]1(C)O [ERYTHROMYCIN] | 64 µg/mL (≈ 87.2 µM) | 32 µg/mL (≈ 43.6 µM) | 16 µg/mL (≈ 21.8 µM) | < 1 µg/mL | < 1 µg/mL | 4 µg/mL (≈ 5.45 µM) | < 1 µg/mL |  |  |  |  |  |  |  |  |  | 
